Results taken from paper PMC13162264, “Chemoproteomic Elucidation of β‑Lactam Drug Targets in Mycobacterium abscessus” (ACS Infectious Diseases, 2026).
In brackets after ≈: the same amount, converted by molar mass.

Experiments:
[1] = system: Mab 19977 (ATCC 19977, subsp. abscessus); parameters: method as in not given; conditions: supplemented Middlebrook 7H9 broth, reported values, ref not given; cited from earlier work
[2] = system: M9510 (clinical strain, subsp. massiliense); parameters: method as in not given; conditions: supplemented Middlebrook 7H9 broth, reported values, ref not given; cited from earlier work
[3] = system: M9510 (clinical strain, subsp. massiliense); experiment: Reported MIC in supplemented Middlebrook 7H9 broth; format: cell-based, Mycobacterium abscessus subsp. massiliense; conditions: from past characterization of M9510, ref not given
[4] = system: β-lactam targets in M9510 whole-cell lysates; experiment: β-lactam competition of Mero-sCy5 labeling in whole-cell lysates; format: binding, Mycobacterium abscessus subsp. massiliense; conditions: drug 1 mM, then Mero-sCy5 5 μM
[5] = system: β-lactam targets in Mab 19977 whole-cell lysates; experiment: as above; format: binding, Mycobacterium abscessus subsp. abscessus; conditions: Mab 19977 lysate; drug 1 mM, then Mero-sCy5 5 μM
[6] = system: recombinant BlaMab; experiment: β-lactamase activity, nitrocefin hydrolysis; format: biochemical, Mycobacterium abscessus; conditions: data not shown
[7] = system: Ldt2; parameters: method as in not given; conditions: nitrocefin hydrolysis by Mab Ldt2, previously found, ref not given, cited from earlier work
[8] = system: O=C(Cc1cccs1)N[C@@H]1C(=O)N2C(C(=O)O)=C(/C=C/c3ccc([N+](=O)[O-])cc3[N+](=O)[O-])CS[C@H]12; experiment: purified protein, by the assay type; conditions: other: nitrocefin hydrolysis by MAB_3998 (20 μM), 37 °C
Description: (B) Steady-state kinetic parameters for nitrocefin hydrolysis by Ldt4, PbpB, and MAB_3998.
To further characterize our findings, we determined the steady-state kinetic parameters for the hydrolysis of nitrocefin by Ldt4, PbpB, and MAB_3998 (Figure B).
Purified enzyme (Ldt4, 5 μM; PbpB, 20 μM; MAB_3998, 20 μM) or buffer alone was
in a 96-well microplate in 50 mM Tris-Cl pH 8.0 at 4 °C, 150 mM NaCl. Nitrocefin
hydrolysis was monitored at 486 nm on a microplate reader (30 sec intervals, 1-2 hr
duration, 37 °C). For Ldt4 and PbpB, initial rates were calculated from 240-570 sec of
the reaction. For MAB_3998, the initial rates were calculated from 120-1200 sec of the
reaction. The velocity against substrate concentration was fit to a nonlinear regression
assuming Michaelis-Menton steady-state kinetics in GraphPad Prism software.
Calculations were done using technical triplicates from two (MAB_3998) or three (Ldt4,
PbpB) separate experiments. Error is reported as standard deviation.

[9] = substrate: O=C(Cc1cccs1)N[C@@H]1C(=O)N2C(C(=O)O)=C(/C=C/c3ccc([N+](=O)[O-])cc3[N+](=O)[O-])CS[C@H]12; experiment: Steady-state kinetics of nitrocefin hydrolysis; format: biochemical, Mycobacterium abscessus; conditions: 37 °C
[10] = other: nitrocefin hydrolysis by Ldt4 (5 μM)
[11] = other: nitrocefin hydrolysis by PbpB (20 μM)

Which MIC [1] does the source give for `C=CC1=C(C(=O)O)N2C(=O)[C@@H](NC(=O)/C(=N\O)c3csc(N)n3)[C@H]2SC1` [cefdinir] here?
The MIC was 128 µg/mL (≈ 324 µM).

What about the MIC [2] of the same molecule?
The MIC was 128 µg/mL (≈ 324 µM).

Which MIC [1] does the source give for `CC(C)(O/N=C(\C(=O)N[C@@H]1C(=O)N2C(C(=O)[O-])=C(C[n+]3ccccc3)CS[C@H]12)c1csc(N)n1)C(=O)O` [ceftazidime] here?
Its MIC is > 256 µg/mL.

And the MIC [2]?
Its MIC is > 256 µg/mL.

For `C[C@@H](O)[C@H]1C(=O)N2C(C(=O)O)=C(S[C@@H]3CN[C@H](CNS(N)(=O)=O)C3)[C@H](C)[C@H]12` [doripenem], which MIC [1] is on record?
The MIC was 16 µg/mL (≈ 38 µM).

And the MIC [2]?
The MIC was 64 µg/mL (≈ 152 µM).

What about the “increased MIC in M9510 relative to 19977” value [3] of the same molecule?
Its value is 4 fold.

What does the source list for `C[C@@H](O)[C@H]1C(=O)N2C(C(=O)O)=C(S[C@@H]3CN[C@H](C(=O)N(C)C)C3)[C@H](C)[C@H]12` [meropenem]?
inhibition of Mero-sCy5 labeling of targets in lysate [4]: abolished ABP labeling; inhibition of Mero-sCy5 labeling of targets in lysate [5]: abolished ABP labeling

With `O=C(Cc1cccs1)N[C@@H]1C(=O)N2C(C(=O)O)=C(/C=C/c3ccc([N+](=O)[O-])cc3[N+](=O)[O-])CS[C@H]12` [nitrocefin] as the molecule, how does the “nitrocefin hydrolysis by BlaMab” value [6] read?
The value was “complete nitrocefin hydrolysis near instantaneously”.

What about the “maximal rate of hydrolysis” value [7] of the same molecule?
Its value is 0.33 µM/s.

And the Km ([7]; read-out: affinity for nitrocefin (Km))?
The Km was 328 µM.

With `CO[C@H]1/C=C/O[C@@]2(C)Oc3c(C)c(O)c4c(c3C2=O)C2=NC3(CCN(CC(C)C)CC3)NC2=C(NC(=O)/C(C)=C\C=C\[C@H](C)[C@H](O)[C@@H](C)[C@@H](O)[C@@H](C)[C@H](OC(C)=O)[C@@H]1C)C4=O` [rifabutin] as the molecule, how does the “susceptibility indicated by reported MIC” value [1] read?
Its value is “susceptible”.

What about the “susceptibility indicated by reported MIC” value [2] of the same molecule?
Its value is “susceptible”.

Which Km [8] does the source give for “MAB_3998 (Mycobacteroides abscessus ATCC 19977)” here?
The Km was 150 ± 9 µM.

And the kcat [8]?
Its kcat is 0.0022 ± 6.1e^-5 s^-1.

What about the kcat/Km [8] of the same molecule?
Its kcat/Km is 14 M⁻¹ s⁻¹.

B1: Ldt4 (Mycobacteroides abscessus ATCC 19977) (protein)
chain: GDVPPLPVGLLKNSPNNGDVVGVAQPITIVFAAPVTDKKAAEAAVKITTSKPAPGYFYWYTDQQLRWKPTQFWPANTDVNVNAGGTKWSFKVGDAFVSTVDDATYTMTVTRNGVVERTMPISMGKHDKKHETKNGTYYVSEKFQKMVMDSSTYGVPVNSAEGYKLDVYWATRLSNSGIFVHAAPWSVGAQGKSDTSHGCINVNTDNATWFFNQSHPGDPVIVKNSPGGPYKDYDGYDDWQRF
Which results are given for B1?
Km [9, 10]: 65 ± 7 µM; kcat [9, 10]: 0.0042 ± 2.0e^-4 s^-1; kcat/Km [9, 10]: 65 M⁻¹ s⁻¹

B2: PbpB (Mycobacteroides abscessus ATCC 19977) (protein)
chain: GPRAAGLRAEASGQLKVTETEKALRGTIVDRAGNKLAFTIEARALTFQPKKIREQLNKAWEKSQEILKDPGKSDADKAAAAKIRSVEPERRLQDIANGVSAKLGNKPDAKSLLKKIRSDDTFAYLARSVDPGIAAQITKEFPEVGAERQDIRQYPGGSLAANIVGSIDWEGYGLLGLEDSLDSALAGKDGSLTYDRGSDGAVIPGSYRDRHDAVNGSTVELTLDNDIQFYVQQQVQQAKDLSEARSVSAVVLDSKTGEVLAMANDNTFDPSQNLGKQGNREMGNLSVSSPFEPGSVNKVITASAVIENDLSNPDEVLQVPGSINMGGVTVRDAWPHGTVPFTTTGVFGKSSNVGTLMLAQRVGPERFMDLVDKFGLGQRTGVGLPGESAGIVPPIEQWSGSTFSNLPIGQGLSMTLLQMAGMYQAIANDGVRIPPRIVKSITAPDGSRKEEPRPEPVQVVNAGTARTVRNMLRAVLQPDARQIQNGTGASGAVDGYQLSGKTGTAQQINPACGCYFDDVYWITFAGIATTDDPRYVIGIEMNAPKRGSDGSPHMTAAPLFHNIASWLMRRENVPLSPDPGPPLILQAT
With B2 as the molecule, how does the Km [9, 11] read?
Its Km is 220 ± 27 µM.

And the kcat [9, 11]?
Its kcat is 0.00075 ± 3.1e^-5 s^-1.

And the kcat/Km [9, 11]?
Its kcat/Km is 3.4 M⁻¹ s⁻¹.
